Assay results from article PMC3161871, “Heteroarylketones inhibit astroglial interleukin-6 expression via a STAT3/NF-κB signaling pathway” (Journal of Neuroinflammation, 2011).

What was measured:
[1] = system: OSM-stimulated IL-6 secretion from U343 cells; test: OSM-induced IL-6 release from U343 glioma cells (IL-6 ELISA of conditioned medium); type: cell-based, human; conditions: for Remaining IL-6 expression [% of control]: 100 ng/ml OSM, 24 h, IL-6 release of vehicle-treated cells set to 100% (n = 2), mean ± SD; for Effect on OSM-induced IL-6 secretion (in words): OSM-stimulated
Protocol: The human glioma cell line U343 [34] was maintained in DMEM containing 10% fetal bovine serum and 60 μg/ml gentamycin (Invitrogen, Darmstadt, Germany) at 37°C in a 10% CO2 atmosphere.
(§1) Measurements of IL-6 in conditioned medium and murine plasma samples were done by means of human- or murine-specific IL-6 Cytoset kits (Invitrogen, Darmstadt, Germany) according to manufacturer's protocols.
Using the characterized cell culture model of OSM-induced IL-6 expression, our in-house compound libraries were screened for potent IL-6 expression inhibitors. Human U343 glioma cells were treated with 100 ng/ml OSM for 24 h. The analysis by IL-6 ELISA identified a set of structurally related compounds as potent inhibitors of IL-6 secretion (Table 1). […] HAKs with proline in position P1 are known from the literature as inhibitors of prolyl endopeptidase (PREP), a proline-specific serine protease.

[2] = target: T1, human recombinant prolyl endopeptidase (PREP) (Homo sapiens, UniProt P48147); test: PREP enzymatic activity assay (Z-Gly-Pro-pNA, photometric); type: biochemical; conditions: for Ki: recombinant PREP, Z-Gly-Pro-pNA 62.5/125/250 μM, pH 7.6, 30°C, competitive fit
T1 construct: made in house
T1 sequence (P48147 1-710): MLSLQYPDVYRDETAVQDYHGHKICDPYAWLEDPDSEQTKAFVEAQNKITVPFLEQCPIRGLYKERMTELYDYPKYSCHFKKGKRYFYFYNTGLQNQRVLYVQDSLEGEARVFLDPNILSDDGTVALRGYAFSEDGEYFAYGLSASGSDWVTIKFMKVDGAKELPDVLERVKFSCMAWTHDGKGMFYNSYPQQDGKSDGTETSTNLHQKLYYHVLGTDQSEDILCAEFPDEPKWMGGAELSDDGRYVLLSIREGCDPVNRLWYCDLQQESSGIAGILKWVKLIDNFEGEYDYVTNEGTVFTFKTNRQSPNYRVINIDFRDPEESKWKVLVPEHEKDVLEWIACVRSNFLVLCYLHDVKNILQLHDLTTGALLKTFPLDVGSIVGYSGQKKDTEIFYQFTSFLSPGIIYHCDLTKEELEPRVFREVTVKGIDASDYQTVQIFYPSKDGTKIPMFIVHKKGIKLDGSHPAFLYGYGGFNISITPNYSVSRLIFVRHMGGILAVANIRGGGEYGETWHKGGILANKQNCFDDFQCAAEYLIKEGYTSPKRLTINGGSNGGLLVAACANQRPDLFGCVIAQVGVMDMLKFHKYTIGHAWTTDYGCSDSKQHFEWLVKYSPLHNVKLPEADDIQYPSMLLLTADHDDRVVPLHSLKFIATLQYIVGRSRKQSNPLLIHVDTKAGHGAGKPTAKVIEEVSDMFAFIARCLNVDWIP
Protocol: The activity of human recombinant prolyl endopeptidase (PREP) was determined photometrically using the substrate Z-Gly-Pro-pNA (Bachem, Weil am Rhein, Germany) usually at a concentration of 150 μM. As assay buffer 50 mM HEPES buffer pH 7.6, containing 200 mM NaCl, 1 mM EDTA, and 1 mM dithiothreitol was used. Release of pNA was monitored continuously at 405 nm for 15 min at 30°C in a 96-well plate reader (Spectrafluor, Tecan, Crailsheim, Germany). PREP activity was calculated from the slope of the time product curve with the help of a pNA standard. For determination of Ki values three different substrate concentrations (62.5 μM; 125 μM and 250 μM) and seven different inhibitor concentrations were analyzed. Substrate concentrations were selected to be at the Km value of Z-Gly-Pro-pNA (125 μM) as well as half and twice the Km. Data were fitted by non-linear regression to the competitive inhibitor equation (Graphit 5.0, Erithacus software).

[3] = system: STAT3 phosphorylation at serine 727 (pSTAT3^S727) in U343 cells; test: OSM-induced STAT3 / Erk1 phosphorylation in U343 cells (western blot, immunocytochemistry); type: cell-based, human; conditions: OSM 100 ng/ml, 20 μM compound, 6 h
Protocol: Human U343 cells were lysed with cell lysis buffer (Invitrogen, Darmstadt, Germany) supplemented with 0.2 mg/ml sodium orthovanadate (Sigma, Taufkirchen, Germany), protease inhibitor mix complete mini (Roche, Mannheim, Germany) and 1 mM AEBSF (Sigma, Taufkirchen, Germany) for 30 min on ice. Lysates were centrifuged for 15 min at 15,000 × g and 4°C. Protein content in supernatants was quantified by Bradford assay (Sigma, Taufkirchen, Germany) according to the manufacturer's protocol and stored at -20°C.
Western blotting was performed with 30 μg protein of whole-cell extracts, mixed with 4 x SDS sample loading buffer (Invitrogen, Darmstadt, Germany) and denatured for 10 min at 85°C. […]
Human U343 cells (1 × 10^5 cells/well) were grown on cover slips in 24-well plates (Greiner, Frickenhausen, Germany) for 24 h. […] Finally, cover slips were mounted on microscope slides and approximately 250 cells/sample were evaluated densitometrically by fluorescence microscopy (Zeiss, Jena, Germany) and MetaMorph Image Analysis Software (Universal Imaging Corporation, USA). […]
Figure 7 Effect of selected HAK compounds on OSM-induced STAT3 phosphorylation at serine 727 in U343 cells. […] For western blot analysis (A) 0.25 × 10^6 cells co-treated for 6 h with OSM (100 ng/ml) and selected HAK compounds (20 μM) were extracted and analyzed as described in experimental procedures. […]

[4] = system: LPS-induced IL-6 release in primary mouse astrocytes; test: LPS-induced IL-6 release in primary mouse astrocytes (ELISA); type: cell-based; conditions: 1 μg/ml LPS, 20 μM compound, 24 h
Protocol: (§2) According to Löffler, astrocyte-rich primary cell cultures were started with brains of newborn mice and rats and were maintained in Dulbecco's modified Eagle's medium (DMEM) for 33 days at 37°C in a humified atmosphere with 95% air/5% CO2.
as §1
(§3) Figure 5 Suppression of LPS-induced IL-6 release in primary murine astrocytes by selected HAK compounds. […] Astrocytes derived from newborn mice and rats were cultivated for 33 days followed by stimulation with 1 μg/ml LPS and treatment with compounds HAK-2 and HAK-5 (20 μM). After 24 hours conditioned media were analyzed with IL-6 specific ELISA. Data (mean ± SD) were obtained from experiments carried out in quadruplicate and statistical analysis was performed using the paired t test. Amount of IL-6 in LPS-treated control sample was set to 100%. ns, not significant; **p < 0.01; ***p < 0.001.
(§4) Primary murine astrocytes stimulated with 1 μg/ml LPS were co-treated with compounds HAK-2 and HAK-5 at a concentration of 20 μM each for 24 h. The observed effect of compounds HAK-2 and HAK-5 on LPS stimulation was similar to that of OSM-induced IL-6 expression in human U343 glioma cells (Figures 5A and 5B). […]

[5] = system: LPS-induced IL-6 release in primary rat astrocytes; test: LPS-induced IL-6 release in primary rat astrocytes (ELISA); type: cell-based; conditions: 1 μg/ml LPS, 20 μM compound, 24 h
Protocol: as §2, §1, §3, §4

[6] = system: OSM-induced IL-6 mRNA expression; design: method as in PMID 10899931; conditions: cited from earlier work

Row | SMILES | PREP inhibition (in words) [2] | Ki [2] [nM] | Remaining IL-6 expression [% of control] [1] | Effect on OSM-induced IL-6 secretion (in words) [1] | Effect on pSTAT3^S727 phosphorylation (western blot) [3] | Suppression of OSM-mediated phosphorylation of pSTAT3^S727 (immunocytochemistry, densitometry) [3] | Reduction of LPS-induced IL-6 expression [4] [%] | Reduction of LPS-induced IL-6 expression [5] [%] | Effect on first OSM-induced IL-6 mRNA peak [6] | Effect on second OSM-induced IL-6 expression peak [6]
1 | O=C(N[C@@H](Cc1ccccc1)C(=O)N1CCC[C@H]1C(=O)c1nccs1)OCc1ccccc1 [HAK-5, Z-Phe-Pro-Th] | – | 0.11 | 35.2 ± 12.92 % of control | significantly reduced | – | – | 60 | 50 | – | –
2 | CC(C)C[C@H](NC(=O)[C@H](Cc1ccccc1)NC(=O)OCc1ccccc1)C(=O)c1nc2ccccc2s1 [HAK-3, Z-Phe-Leu-BTh] | poor PREP inhibitors | > 1000 | 22.1 ±5.91 % of control | significantly reduced | – | – | – | – | – | –
3 | C[C@H](NC(=O)[C@H](Cc1ccccc1)NC(=O)OCc1ccccc1)C(=O)c1nc2ccccc2s1 [HAK-4, Z-Phe-Ala-BTh] | poor PREP inhibitors | > 10000 | 35.1 ± 6.75 % of control | significantly reduced | – | – | – | – | – | –
4 | COc1ccc(C[C@H](N)C(=O)N[C@H]2[C@@H](O)[C@H](n3cnc4c(N(C)C)ncnc43)O[C@@H]2CO)cc1 [puromycin] | – | – | – | – | – | – | – | – | no effect | completely abrogated
5 | O=C(N[C@@H](Cc1ccccc1)C(=O)N1CCC[C@H]1C(=O)c1nc2ccccc2s1)OCc1ccccc1 [HAK-1, Z-Phe-Pro-BTh] | – | 4.6 | 15.9 ± 1.87 % of control | significantly reduced | – | – | – | – | – | –

The next lines start with results.

Row | PREP inhibition (in words) [2] | Ki [2] [nM] | SMILES | Remaining IL-6 expression [% of control] [1] | Effect on OSM-induced IL-6 secretion (in words) [1] | Effect on pSTAT3^S727 phosphorylation (western blot) [3] | Suppression of OSM-mediated phosphorylation of pSTAT3^S727 (immunocytochemistry, densitometry) [3] | Reduction of LPS-induced IL-6 expression [4] [%] | Reduction of LPS-induced IL-6 expression [5] [%] | Effect on first OSM-induced IL-6 mRNA peak [6] | Effect on second OSM-induced IL-6 expression peak [6]
6 | potent PREP inhibitor | 3.2 | N=C(N)NCCC[C@H](NC(=O)OCc1ccccc1)C(=O)N1CCC[C@H]1C(=O)c1nc2ccccc2s1 [HAK-8, Z-Arg-Pro-BTh] | 96.8 ± 10.69 % of control | does not reduce | significantly lower effect | did not | – | – | – | –
7 | – | > 10000 | O=C(NC(Cc1ccccc1)C(=O)NC(Cc1ccccc1)C(=O)c1nc2ccccc2s1)OCc1ccccc1 (stereo not drawn) [HAK-9, Z-Phe-Phe-BTh] | 182.8 ± 25.41 % of control | – | – | – | – | – | – | –
8 | – | 12 | O=C(O)C[C@H](NC(=O)OCc1ccccc1)C(=O)N1CCC[C@H]1C(=O)c1nc2ccccc2s1 [HAK-7, Z-Asp-Pro-BTh] | 52.8 ± 3.91 % of control | significantly reduced | – | – | – | – | – | –
9 | – | 4.1 | NCCCC[C@H](NC(=O)OCc1ccccc1)C(=O)N1CCC[C@H]1C(=O)c1nc2ccccc2s1 [HAK-6, Z-Lys-Pro-BTh] | 38.8 ± 5.26 % of control | significantly reduced | – | – | – | – | – | –
